Data on five molecules can be found in US11066384B2, “Crystalline forms of ARN-509, preparation method and use thereof” (Crystal Pharmaceutical (Suzhou) Co., Ltd., priority 2018, dated 2021).

“Also recorded” adds a separate entry of the source. Where two headings read alike, the source gives them in different places.

Data set [1] is described as follows: Kinetic solubility of Form CS8, Form A and Form B in pH 1.0-6.8 media (HPLC). The class given is physicochemical. As for the experimental part: The HPLC method parameters for solubility test in the present disclosure are as follows:
1. Column: Waters XBridge C18 150×4.6 mm, 5 μm
2. Mobile Phase: A: 0.1% TFA in H2O • B: 0.1% TFA in Acetonitrile
4. Injection Volume: 5 μL
5. Detection wavelength: 242 nm
6. Column Temperature: 40° C.
Different parts of the human body have different acidity (pH 1.0-8.0). The pH in stomach is 1.0-2.0, and the pH in the small intestine is 4.0-7.0. The stomach and small intestine are the key organs for drug dissolution and absorption, so measuring the dynamic solubility of a drug in a medium with pH 1.0-7.0 plays an important role in predicting the in vivo bioavailability.
About 20 mg of Form CS8, Form A and Form B of the prior art were suspended into 2.0 mL of 0.1 mol/L HCl aqueous solution (pH=1.0), 2.0 mL of acetic acid buffer solution (PH=4.5) and 2.0 mL of phosphate buffer solution (pH=6.8) to make suspensions. After equilibrated for 15 minutes, 30 minutes, and 1 hour, concentrations (μg/mL) of the saturated solutions were measured by HPLC.

Data set [2] can be described thus: Mechanical stability: manual grinding for 5 minutes (XRPD). The class given is physicochemical. As to conditions: ground manually for 5 minutes in a mortar. As to the method: Form CS8, Form A and Form B of the prior art were ground manually for 5 minutes in a mortar, XRPD patterns were collected before and after gridding. The XRPD pattern overlay of Form CS8, Form A and Form B of the prior art are depicted in FIG. 17, FIG. 18 and FIG. 19.

The nature of data set [3]: Compressibility: tensile strength of compacts. It is filed as physicochemical. The note with it: 80 mg, φ6 mm round tooling, 10 KN; for Diameter / Hardness / Thickness: after 24 h at room temperature; for Tensile strength: T=2H/πDL. As for the experimental part:
80 mg of Form CS8, Form A and Form B of the prior art were weighed and added into the dies of φ6 mm round tooling, compressed at 10 KN manually, then stored at room temperature for 24 h until complete elastic recovery. Hardness (H) was tested with an Intelligent Tablet Hardness Tester. Diameter (D) and thickness (L) were tested with a caliper. Tensile strength of the powder was calculated with the following formula: T=2H/πDL. Under a certain force, the greater the tensile strength, the better the compressibility.

The nature of data set [4]: Particle size distribution (laser particle size analyzer). The note with it: Isopar G containing 0.2% lecithin. It is filed as physicochemical. As for the experimental part:
The particle size distribution data in the present disclosure were acquired by an […] laser particle size analyzer of Microtrac. Microtrac […] is equipped with an SDC (Sample Delivery Controller). The test is carried out in wet mode, and the dispersion medium is Isopar G. The laser particle size analyzer parameters are as follows: [table] Approximately 20 mg of Form CS8, Form A and Form B of the prior art were added into 10 mL of Isopar G (containing 0.2% lecithin). The mixture was mixed thoroughly and transferred into the SDC. The measurement was started when the sample amount indicator is in appropriate position. The average particle diameter calculated by volume, the diameter at which 10% mass is comprised of smaller particles (D10), the diameter at which 50% mass is comprised of smaller particles (D50) and the diameter at which 90% mass is comprised of smaller particles (D90) were obtained in particle size distribution test.

The nature of data set [5]: Adhesiveness: material sticking to the punch. It is filed as physicochemical. As to conditions: 30 mg, φ8 mm round tooling, 10 KN, held 30 s. As for the experimental part:
Approximately 30 mg of Form CS8, Form A and Form B of the prior art were weighed and then added into the dies of φ8 mm round tooling, compressed at 10 KN and held for 30 s. The punch was weighed and amount of material sticking to the punch was calculated. The compression was repeated twice and the cumulative amount, maximum amount and average amount of material sticking to the punch during compression process were recorded.

The conditions of data set [6]: cited from earlier work.
Where [7] appears, read: 0.1 mol/L HCl aqueous solution pH=1.0, equilibrated 15 min.
Setting [8] is: 0.1 mol/L HCl aqueous solution pH=1.0, equilibrated 30 min.
Where [9] appears, read: 0.1 mol/L HCl aqueous solution pH=1.0, equilibrated 1 h.
Setting [10] is: acetic acid buffer solution pH=4.5, equilibrated 15 min.
The mark [11] stands for this setting: acetic acid buffer solution pH=4.5, equilibrated 30 min.
Setting [12] is: acetic acid buffer solution pH=4.5, equilibrated 1 h.
Setting [13] is: phosphate buffer solution pH=6.8, equilibrated 15 min.
Setting [14] is: phosphate buffer solution pH=6.8, equilibrated 30 min.
[15] abbreviates: phosphate buffer solution pH=6.8, equilibrated 1 h.

`CNC(=O)c1ccc(N2C(=S)N(c3cnc(C#N)c(C(F)(F)F)c3)C(=O)C23CCC3)cc1F` [Form A of the prior art, 4-[7-(6-cyano-5-trifluoromethylpyridin-3-yl)-8-oxo-6-thioxo-5,7-diazaspiro[3.4]oct-5-yl]-2-fluoro-N-methylbenzamide]: the “Solubility (concentration of saturated solution)” value (shortened to “Solubility”) in data set [1] (setting [7]) turned out to be 7.4 µg/mL; in data set [1] (setting [8]) it was 6.2 µg/mL; in data set [1] (setting [9]), 8.0 µg/mL; in data set [1] (setting [10]), 5.9 µg/mL; in data set [1] (setting [11]), 5.2 µg/mL; in data set [1] (setting [12]), 5.5 µg/mL. Besides, the entries for the “Solubility” value in data set [1] (setting [13]), in data set [1] (setting [14]) and in data set [1] (setting [15]) were 6.1 µg/mL, 8.4 µg/mL and 4.8 µg/mL, respectively. In addition, the “Crystalline form/crystallinity after grinding” value in data set [2] was “transformed into amorphous after grinding; also recorded: Almost change to amorphous”. This molecule gave a Diameter in data set [3] of 6.08 mm. For the same molecule, the Hardness in data set [3] was 12.3 N. The same molecule displayed a Thickness in data set [3] of 2.10 mm. Also, in data set [3], the Tensile strength is recorded as 0.64 MPa. Further, in data set [4], the D10 is on record as 4.22 μm. The molecule further came in with a D50 in data set [4] of 14.81 μm. In data set [4], the D90 came out at 130.4 μm. The “MV (average particle diameter calculated by volume)” value in data set [4] was 53.51 μm. Moreover, the “Average amount of material sticking to the punch” value in data set [5] is given as 0.13 mg. For the same molecule, the “Maximum amount of material sticking to the punch” value in data set [5] came out at 0.19 mg.
`CNC(=O)c1ccc(N2C(=S)N(c3cnc(C#N)c(C(F)(F)F)c3)C(=O)C23CCC3)cc1F` [Form B of the prior art, 4-[7-(6-cyano-5-trifluoromethylpyridin-3-yl)-8-oxo-6-thioxo-5,7-diazaspiro[3.4]oct-5-yl]-2-fluoro-N-methylbenzamide]: the “Solubility” value in data set [1] (setting [7]) worked out at 1.2 µg/mL; in data set [1] (setting [8]) it was 1.5 µg/mL; in data set [1] (setting [9]), 1.3 µg/mL; in data set [1] (setting [10]), 1.1 µg/mL; in data set [1] (setting [11]), 1.4 µg/mL; in data set [1] (setting [12]) it was 1.3 µg/mL. Moreover, the “Solubility” value in data set [1] (setting [13]) was determined as 1.2 µg/mL; in data set [1] (setting [14]), 1.0 µg/mL; in data set [1] (setting [15]), 0.9 µg/mL. In data set [2], the “Crystalline form/crystallinity after grinding” value was “decreases after grinding; also recorded: Crystallinity decreased”. Further, the Diameter in data set [3] was found to be 6.09 mm. Further, the Hardness in data set [3] is listed as 10.1 N. The Thickness in data set [3] came to 2.13 mm. Besides, in data set [3], the Tensile strength was 0.50 MPa. In data set [4], this molecule returned a D10 of 12.1 μm. Also, in data set [4], the D50 is 241.7 μm. In data set [4], this molecule showed a D90 of 1133 μm. Further, the “MV (average particle diameter calculated by volume)” value in data set [4] is recorded as 420.3 μm. The “Average amount of material sticking to the punch” value in data set [5] stood at 0.15 mg. Also, the “Maximum amount of material sticking to the punch” value in data set [5] was determined as 0.17 mg.
For the molecule `CNC(=O)c1ccc(N2C(=S)N(c3cnc(C#N)c(C(F)(F)F)c3)C(=O)C23CCC3)cc1F` [Form I, 4-[7-(6-cyano-5-trifluoromethylpyridin-3-yl)-8-oxo-6-thioxo-5,7-diazaspiro[3.4]oct-5-yl]-2-fluoro-N-methylbenzamide], in data set [6] (high humidity conditions), the Crystal form transformation entry is listed as “transform to form B”.
For `CNC(=O)c1ccc(N2C(=S)N(c3cnc(C#N)c(C(F)(F)F)c3)C(=O)C23CCC3)cc1F` [Form F, 4-[7-(6-cyano-5-trifluoromethylpyridin-3-yl)-8-oxo-6-thioxo-5,7-diazaspiro[3.4]oct-5-yl]-2-fluoro-N-methylbenzamide], the Crystal form transformation entry in data set [6] (ambient conditions) is “transform to form A”.
Regarding `CNC(=O)c1ccc(N2C(=S)N(c3cnc(C#N)c(C(F)(F)F)c3)C(=O)C23CCC3)cc1F` [Form H, 4-[7-(6-cyano-5-trifluoromethylpyridin-3-yl)-8-oxo-6-thioxo-5,7-diazaspiro[3.4]oct-5-yl]-2-fluoro-N-methylbenzamide], the Crystal form transformation result in data set [6] (high temperature and high humidity conditions) is given as “easily transformed into form B”.
